First: CCN(CC)C(=O)c1c(CO)ccc(F)c1[Si](C)(C)C
Second: CCN(CC)C(=O)Nc1ccc(-c2c[nH]c(=O)cn2)cc1
The melting point of the first is lower: 107 to 108 °C for the first, 154 to 155 °C for the second.

Going from `CC1(C)COc2ccc(Cl)cc2C(O)(c2ccccn2)C1` (stereo unspecified) to `CC1(C)C(=O)Nc2ccc(NC(=O)c3ccncc3)cc21`, the melting point rises from 118 °C to greater than 300 °C.

First: Cc1c(F)c(N)cc(Br)c1F
Second: OCC1Cc2cc(F)cc(Br)c2O1 (stereo unspecified)
The melting point of the first is higher: 68 to 68.5 °C for the first, 53 to 57 °C for the second.

First: COc1nc(NC(=O)NS(=O)(=O)Cc2ccccc2C(C)OC(C)=O)nc(OC)n1 (stereo unspecified)
Second: COCCOc1cccc(-c2ccc(C3CCN(S(=O)(=O)C(C)(C)C(=O)O)CC3)cc2C)n1
The melting point of the first is lower: 90 to 95 °C for the first, 142 to 146 °C for the second.

First: CC1(CN2CCC(Cc3ccc(F)cc3)CC2)CC(c2ccc3[nH]c(=O)oc3c2)=NO1 (stereo unspecified)
Second: Cc1c(-c2ccccc2)nc(N)nc1C1CCN(Cc2cccc(C#N)c2)CC1
The melting point of the first is lower: 82 to 86 °C for the first, 176 °C for the second.

Compared with `Cc1[nH]c(-c2ccccc2)c(N)c1C(=O)c1ccccc1Cl`, `CNc1nc(-c2ccccc2)c(-c2nc3ccccc3c(=O)n2-c2ccc(C)cc2)s1` is lower in melting point: 214 to 216 °C for the first, 192 to 193 °C for the second.

Compared with `CCOC(=O)C(=O)Nc1cccc(N)c1C#N`, `CCOC(=O)COc1cccc(C(=O)Nc2ccccc2Sc2ccc(-c3nnn[nH]3)cc2)c1` is lower in melting point: 133 to 136 °C for the first, 88 to 90 °C for the second.

First: Cc1c(Cc2ccc([N+](=O)[O-])cc2)c(=O)oc2cc(O)cc(O)c12
Second: O=C1C(c2ccc(O)cc2)=C(Br)c2cc(O)ccc21
The melting point of the first is higher: 280 to 285 °C for the first, 245 °C for the second.

Compared with `C=C(COc1ccc(C(=O)CCC(=O)O)cc1F)COc1ccc(C(C)=O)c(O)c1CCC`, `OCc1ccc(OCc2ccccc2)c(F)c1` is lower in melting point: 132 to 134 °C for the first, 56 to 57 °C for the second.

Compared with `Nc1ccc(CC(=O)O)cc1Br`, `CCNC(=O)/C=C/c1cccc(Cl)c1` is lower in melting point: 139 to 140 °C for the first, 87 to 88 °C for the second.

Compared with `O=C(O)CNC(=O)n1cc(C(=O)c2ccn3c2CSC3c2cccnc2)c2ccc(-c3ccc(F)cc3)cc21` (stereo unspecified), `CCCN1CC(c2cccc(F)c2)=C(c2ccc(S(N)(=O)=O)cc2)C1=O` is lower in melting point: 255 °C for the first, 188 to 190 °C for the second.

First: CCN(CC)NC(C)=O
Second: CCS(=O)(=O)Nc1cc(Br)cc(Cc2c[nH]cn2)c1C
The melting point of the first is lower: 47.5 to 49.5 °C for the first, 202 to 204 °C for the second.

First: CCOC(=O)c1cnn(-c2ccccn2)c1Cl
Second: CN(CCO)c1nc2ccccc2o1
The melting point of the first is lower: 50 to 51 °C for the first, 62 to 63 °C for the second.

First: CC1=C(OS(=O)(=O)c2ccc(C)cc2)C(=O)C(C)O1 (stereo unspecified)
Second: CS(=O)(=O)c1ccc(C2CC(=O)C(C(=O)c3ccc(Cl)cc3[N+](=O)[O-])C(=O)N2)cc1 (stereo unspecified)
The melting point of the first is lower: 70 to 72 °C for the first, 296 to 299 °C for the second.

First: CC(C#N)(CO)NS(=O)(=O)Cc1ccccc1 (stereo unspecified)
Second: O=C1CCCc2oc(-c3ccccc3)cc21
The melting point of the first is higher: 153 to 155 °C for the first, 132 to 134 °C for the second.

First: c1ccc2c(c1)Nc1cc(-c3csc(CN4CCCCC4)n3)ccc1S2
Second: Cc1oc(-c2ccccc2)nc1COc1cccc(CON2C(=O)c3ccccc3C2=O)c1
The melting point of the first is higher: 186 to 188 °C for the first, 146 to 147 °C for the second.

First: CCn1cc(C(=O)O)c(=O)c2cc(F)c(N3CCN(C)C(c4cc[nH]c4)C3)cc21 (stereo unspecified)
Second: CCc1ccc2c(Cc3nc4c(F)c(F)cc(F)c4s3)cn(CC(=O)O)c2n1
The melting point of the first is lower: 150 to 152 °C for the first, 155 to 157 °C for the second.

First: COc1nc2cc(Cl)ccc2nc1Cl
Second: Cn1nnnc1-c1ccc2[nH]ccc2c1
The melting point of the first is lower: 92 to 95 °C for the first, 149 to 150 °C for the second.

Compared with `CCCCN1C(=O)C2C(=O)N(Cc3cc(C)ccc3C)C(=O)C(C1=O)C2(C)C`, `C#CC(=O)N1CCN(C(=O)OC2C3=C(OCCS3)C(=O)N2c2ccc3ccc(Cl)nc3n2)CC1` (stereo unspecified) is higher in melting point: 159 to 161 °C for the first, 302 °C for the second.

First: S=c1[nH]ccn1Cc1ccco1
Second: COc1cc(Nc2c(C#N)cnc3cc(C#Cc4ccncc4)sc23)c(Cl)cc1Cl
The melting point of the first is lower: 106 to 108 °C for the first, 221 to 223 °C for the second.

`CC(C)(Cc1c(C(=O)c2ccccc2)c2cc(OCc3ccc4ccccc4n3)ccc2n1Cc1ccc(Cl)cc1)C(=O)O` showed a melting point of 165 to 166 °C.

Reference: a melting point compilation (Tetko et al.; mined from patent text by program, amines drawn as free bases though some values may be those of a salt)
